We go through five molecules from patent US5625046A, “Hydroxyl projecting groups for organic synthesis” (King's College London, priority 1986, dated 1997).

Data set [1] is described as follows: removal of 2'-protecting groups by acidic hydrolysis at 25° C. (HPLC). To be noted: for t0.99 (calculated time for 99% removal of the 2'-protecting group) / t1/2 (half-time): 25° C.; for t1/2 (half-time): hydrochloric acid or 0.2M glycine hydrochloride buffer; for rate of hydrolysis, times faster at pH 1.0 than at pH 3.0: pH 1.0 vs pH 3.0. The class given is physicochemical. The procedure: The removal of 2'-protecting groups by acidic hydrolysis at 25° C. was then investigated. Substrates as indicated below (ca 0.5-1.0 mg) were dissolved in 3.0 ml of hydrochloric acid or 0.2M glycine hydrochloride buffer at the specified pH. Aliquots (0.2 ml) of the reaction solutions were removed after suitable intervals of time, neutralized with triethylammonium bicarbonate and analyzed by HPLC (Jones "APEX ODS" column).
(b) t0.99 =calculated time for 99% removal of the 2'-protecting group.

Data set [2] in a line: concomitant removal of 2'-O-Ctmp group during removal of 5'-O-(9-phenylxanthen-9-yl) group (trifluoroacetic acid/pyrrole in dichloromethane). The class given is physicochemical. To be noted: in the time required for complete removal of the 5'-O-(9-phenylxanthen-9-yl) group, 5.5 mol. equiv. trifluoroacetic acid, 16.5 mol. equiv. pyrrole, room temperature. The procedure:
Following the above scheme, the latter compound was then converted by the conventional two-step procedure into the fully-protected dinucleoside phosphate in ca 83% overall yield. When a 0.025M solution of the fully-protected dinucleoside phosphate in dichloromethane was treated with 5.5 mol. equiv. of trifluoroacetic acid and 16.5 mol. equiv. of pyrrole for 30 seconds at room temperature, no starting material remained and the partially-protected dinucleoside phosphate was isolated from the products In 95.5% yield. When the acid treatment of the fully-protected dinucleoside phosphate was extended to 30 minutes under the same conditions, the partially-protected dinucleoside phosphate was isolated in 85% yield. From such results, it may be estimated that less than 0.2% concomitant removal of the 2'-O-Ctmp group occurs in the time required for the complete removal of the 5'-O-(9-phenylxanthen-9-yl) protecting group.

In the case of `COC1(O[C@@H]2[C@H](O)[C@@H](CO)O[C@H]2n2ccc(=O)[nH]c2=O)CCN(c2ccc(C)cc2Cl)CC1`, the “rate of hydrolysis, dependence on pH” value in data set [1] (between pH 0.5 and 1.5) is “virtually unchanged”. Besides, the “t0.99 (calculated time for 99% removal of the 2'-protecting group)” value is reported as 223 min in data set [1] (pH 0.5); 236 min in data set [1] (pH 1.0); 233 min in data set [1] (pH 1.5); 272 min in data set [1] (pH 2.0); 345 min in data set [1] (pH 2.5); 532 min in data set [1] (pH 3.0). In data set [1] (pH 3.5), the “t0.99 (calculated time for 99% removal of the 2'-protecting group)” value is 1120 min. For the same molecule, the “t1/2 (half-time)” value in data set [1] (pH 0.5) was determined as 33.5 min; in data set [1] (pH 1.0), 35.5 min; in data set [1] (pH 1.5) it was 35 min; in data set [1] (pH 2.0), 41 min; in data set [1] (pH 2.5), 52 min; in data set [1] (pH 3.0), 80 min. Also, in data set [1] (pH 3.5), the “t1/2 (half-time)” value was 168 min. For the same molecule, the “rate of hydrolysis, times faster at pH 1.0 than at pH 3.0” value in data set [1] is approximately 2.25 times.

As for `COC1(O[C@@H]2[C@H](OP(=O)(O)OC[C@H]3O[C@@H](n4ccc(=O)[nH]c4=O)[C@H](O)[C@@H]3O)[C@@H](CO)O[C@H]2n2ccc(=O)[nH]c2=O)CCN(c2ccc(C)cc2Cl)CC1`, the “effect of vicinal phosphotriester group on acid-catalyzed hydrolysis of Ctmp (in words)” value in data set [1] is “facilitates the acid-catalyzed hydrolysis”. In addition, in data set [1] (pH 2.0), the “t0.99 (calculated time for 99% removal of the 2'-protecting group)” value is reported as 143 min and the “t1/2 (half-time)” value worked out at 21.5 min. Besides, in data set [1] (pH 2.5), the “t0.99 (calculated time for 99% removal of the 2'-protecting group)” value is reported as 156 min and the “t1/2 (half-time)” value came out at 23.5 min.

For the molecule `COC1(O[C@@H]2[C@H](O)[C@@H](CO)O[C@H]2n2ccc(=O)[nH]c2=O)CCOCC1` [reference compound], the results for the “t0.99 (calculated time for 99% removal of the 2'-protecting group)” value in data set [1] (pH 1.0), in data set [1] (pH 2.0) and in data set [1] (pH 3.0) were 6 min, 136 min and 837 min, respectively. In addition, the “t1/2 (half-time)” value in data set [1] (pH 1.0) is recorded as 0.9 min; in data set [1] (pH 2.0), 20.5 min; in data set [1] (pH 3.0) it was 126 min. The “rate of hydrolysis, times faster at pH 1.0 than at pH 3.0” value in data set [1] is given as 140 times. The “rate of hydrolysis, dependence on pH (in words)” value in data set [1] (with decreasing pH) is reported as “increases sharply with decreasing pH”.

In the case of `COC1(O[C@@H]2[C@H](OP(=O)(OC[C@H]3O[C@@H](n4ccc(=O)[nH]c4=O)[C@H](OC(C)=O)[C@@H]3OC(C)=O)Oc3ccccc3Cl)[C@@H](COC3(c4ccccc4)c4ccccc4Oc4ccccc43)O[C@H]2n2ccc(=O)[nH]c2=O)CCN(c2ccc(C)cc2Cl)CC1` (some centres unmarked) [fully-protected dinucleoside phosphate], the “concomitant removal of the 2'-O-Ctmp group” value in data set [2] is “less than 0.2%”.

Regarding `COC1(O[C@@H]2[C@H](O)[C@@H](CO)O[C@H]2n2ccc(=O)[nH]c2=O)CCN(c2ccccc2)CC1` [reference compound], the “stability of protecting group for the desired purposes (in words)” value in data set [1] is listed as “too stable”. Moreover, in data set [1] (pH 1.0), the “t0.99 (calculated time for 99% removal of the 2'-protecting group)” value is 3300 min and the “t1/2 (half-time)” value was determined as 498 min. In data set [1] (pH 2.0), the “t0.99 (calculated time for 99% removal of the 2'-protecting group)” value is 4380 min and the “t1/2 (half-time)” value was found to be 660 min.
